Results on 28 molecules are retold here after patent publication US10669240B2, “5-substituted indazole-3-carboxamides and preparation and use thereof” (Samumed, LLC, priority 2014, dated 2020).

As usually defined, the EC50 is the midpoint of the concentration-response curve.

Structures are written as SMILES.

The target of this assay is DYRK1A (Homo sapiens (Human), UniProt Q13627). As to the kind of experiment: DYRK1A activity Tau assay: pSer396 Tau in SH-SY5Y cells by ELISA / western blot. It counts as cell-based. Conditions: overnight (16-18 h) exposure. (In general: In an ELISA, binding on a coated surface is turned into a signal by an enzyme label.)
Turning to `O=C(NCCN1CCCCC1)c1n[nH]c2ccc(-c3cccc(F)c3F)cc12` [Compound 1266, 5-(2,3-Difluorophenyl)-N-(2-(piperidin-1-yl)ethyl)-1H-indazole-3-carboxamide], a half-maximal response (EC50) required 75 nM.
Under `O=C(NCCN1CCOCC1)c1n[nH]c2ccc(-c3cccc(F)c3F)cc12` [Compound 1268, 5-(2,3-Difluorophenyl)-N-(2-morpholinoethyl)-1H-indazole-3-carboxamide] stands 23 nM.
For `CCN(CC)Cc1cncc(-c2ccc3[nH]nc(C(=O)NC4CC4)c3c2)c1` [Compound 1270, N-Cyclopropyl-5-(5-((diethylamino)methyl)pyridin-3-yl)-1H-indazole-3-carboxamide], the concentration giving a half-maximal response (EC50) worked out at 7 nM.
Consider `O=C(NC1CC1)c1n[nH]c2ccc(-c3cncc(CN4CCC4)c3)cc12` [Compound 1271, 5-(5-(Azetidin-1-ylmethyl)pyridin-3-yl)-N-cyclopropyl-1H-indazole-3-carboxamide], for which it took 19 nM to reach a half-maximal effect (EC50).
Under `CN1CCC2(CC1)CC(NC(=O)c1n[nH]c3ccc(-c4cncc(F)c4)cc13)C2` [Compound 1277, 5-(5-Fluoropyridin-3-yl)-N-(7-methyl-7-azaspiro[3.5]nonan-2-yl)-1H-indazole-3-carboxamide] stands 11 nM; under `O=C(NC1CCCC1)c1n[nH]c2ccc(-c3cncc(Cl)c3)cc12` [Compound 1279, 5-(5-Chloropyridin-3-yl)-N-cyclopentyl-1H-indazole-3-carboxamide], 98 nM.
`O=C(NC1CCCC1)c1n[nH]c2ccc(-c3cncc(F)c3)cc12` [Compound 1280, N-Cyclopentyl-5-(5-fluoropyridin-3-yl)-1H-indazole-3-carboxamide] yielded an EC50 of 32 nM.
In turn, `O=C(NC1CCCCC1)c1n[nH]c2ccc(-c3cncnc3)cc12` [Compound 1281, N-Cyclohexyl-5-(pyrimidin-5-yl)-1H-indazole-3-carboxamide] returned an EC50 of 64 nM.
Under `O=C(NC1CCCCC1)c1n[nH]c2ccc(-c3cncc(F)c3)cc12` [Compound 1282, N-Cyclohexyl-5-(5-fluoropyridin-3-yl)-1H-indazole-3-carboxamide] stands 22 nM; under `O=C(NC1CCC(F)(F)CC1)c1n[nH]c2ccc(-c3cncc(F)c3)cc12` [Compound 1284, N-(4,4-Difluorocyclohexyl)-5-(5-fluoropyridin-3-yl)-1H-indazole-3-carboxamide], 17 nM.
Under `CN1CC2(CCC(NC(=O)c3n[nH]c4ccc(-c5cncc(F)c5)cc34)CC2)C1` [Compound 1289, 5-(5-Fluoropyridin-3-yl)-N-(2-methyl-2-azaspiro[3.5]nonan-7-yl)-1H-indazole-3-carboxamide] stands 29 nM; under `CN1CCC(NC(=O)c2n[nH]c3cc(F)c(-c4cccnc4)cc23)CC1` [Compound 1290, 6-Fluoro-N-(1-methylpiperidin-4-yl)-5-(pyridin-3-yl)-1H-indazole-3-carboxamide], 21 nM.
`CCN1CCC(NC(=O)c2n[nH]c3ccc(-c4cncc(Cl)c4)cc23)CC1` [Compound 1291, 5-(5-Chloropyridin-3-yl)-N-(1-ethylpiperidin-4-yl)-1H-indazole-3-carboxamide] showed an EC50 of 39 nM.
Take `CCN1CCC(NC(=O)c2n[nH]c3ccc(-c4cncc5ccccc45)cc23)CC1` [Compound 1292, N-(1-Ethylpiperidin-4-yl)-5-(isoquinolin-4-yl)-1H-indazole-3-carboxamide]: the EC50 is 74 nM.
Under `CCN1CCC(NC(=O)c2n[nH]c3ccc(-c4cnc5ccccc5c4)cc23)CC1` [Compound 1294, N-(1-Ethylpiperidin-4-yl)-5-(quinolin-3-yl)-1H-indazole-3-carboxamide] stands 238 nM; under `CCN1CCC(NC(=O)c2n[nH]c3ccc(-c4cnc5ccc(F)cc5c4)cc23)CC1` [Compound 1295, N-(1-Ethylpiperidin-4-yl)-5-(6-fluoroquinolin-3-yl)-1H-indazole-3-carboxamide], 340 nM.
Molecule `O=C(NC1CCN(CCF)CC1)c1n[nH]c2ccc(-c3cncc(Cl)c3)cc12` [Compound 1296, 5-(5-Chloropyridin-3-yl)-N-(1-(2-fluoroethyl)piperidin-4-yl)-1H-indazole-3-carboxamide] displayed an EC50 of 27 nM.
Under `O=C(NC1CCN(CC(F)F)CC1)c1n[nH]c2ccc(-c3cncc(Cl)c3)cc12` [Compound 1299, 5-(5-Chloropyridin-3-yl)-N-(1-(2,2-difluoroethyl)piperidin-4-yl)-1H-indazole-3-carboxamide] stands 20 nM; under `CC(F)(F)CN1CCC(NC(=O)c2n[nH]c3ccc(-c4cccnc4)cc23)CC1` [Compound 1300, N-(1-(2,2-Difluoropropyl)piperidin-4-yl)-5-(pyridin-3-yl)-1H-indazole-3-carboxamide], 6 nM.
With `CC(F)(F)CN1CCC(NC(=O)c2n[nH]c3ccc(-c4cncc(F)c4)cc23)CC1` [Compound 1301, N-(1-(2,2-Difluoropropyl)piperidin-4-yl)-5-(5-fluoropyridin-3-yl)-1H-indazole-3-carboxamide], the EC50 came to 23 nM.
`CC(F)(F)CN1CCC(NC(=O)c2n[nH]c3ccc(-c4cncc(Cl)c4)cc23)CC1` [Compound 1302, 5-(5-Chloropyridin-3-yl)-N-(1-(2,2-difluoropropyl)piperidin-4-yl)-1H-indazole-3-carboxamide] registered an EC50 of 31 nM.
`CC(C)N1CCC(NC(=O)c2n[nH]c3ccc(-c4cncc(C(F)F)c4)cc23)CC1` [Compound 1303, 5-(5-(Difluoromethyl)pyridin-3-yl)-N-(1-isopropylpiperidin-4-yl)-1H-indazole-3-carboxamide] came in with a concentration for a half-maximal effect (EC50) of 117 nM.
`CC(C)N1CCC(NC(=O)c2n[nH]c3cc(Cl)c(-c4cccnc4)cc23)CC1` [Compound 1304, 6-Chloro-N-(1-isopropylpiperidin-4-yl)-5-(pyridin-3-yl)-1H-indazole-3-carboxamide]: the EC50 was determined as 96 nM.
With `CC(C)CN1CCC(NC(=O)c2n[nH]c3ccc(-c4cncc(F)c4)cc23)CC1` [Compound 1306, 5-(5-Fluoropyridin-3-yl)-N-(1-isobutylpiperidin-4-yl)-1H-indazole-3-carboxamide] the figure was 44 nM.
For `CC(C)CN1CCC(NC(=O)c2n[nH]c3ccc(-c4cncc(Cl)c4)cc23)CC1` [Compound 1307, 5-(5-Chloropyridin-3-yl)-N-(1-isobutylpiperidin-4-yl)-1H-indazole-3-carboxamide], the concentration for a half-maximal effect (EC50) was determined as 47 nM.
`CC(C)CN1CCC(NC(=O)c2n[nH]c3cc(F)c(-c4cccnc4)cc23)CC1` [Compound 1308, 6-Fluoro-N-(1-isobutylpiperidin-4-yl)-5-(pyridin-3-yl)-1H-indazole-3-carboxamide] returned an EC50 of 17 nM.
Under `CC(C)(F)CN1CCC(NC(=O)c2n[nH]c3ccc(-c4cncc(F)c4)cc23)CC1` [Compound 1310, N-(1-(2-Fluoro-2-methylpropyl)piperidin-4-yl)-5-(5-fluoropyridin-3-yl)-1H-indazole-3-carboxamide] stands 19 nM; under `CC(C)(F)CN1CCC(NC(=O)c2n[nH]c3ccc(-c4cncc(Cl)c4)cc23)CC1` [Compound 1311, 5-(5-Chloropyridin-3-yl)-N-(1-(2-fluoro-2-methylpropyl)piperidin-4-yl)-1H-indazole-3-carboxamide], 30 nM.
